This note sets out measurements from paper PMC11203676, “Synthesis, Molecular Electron Density Theory Study, Molecular Docking, and Pharmacological Evaluation of New Coumarin–Sulfonamide–Nitroindazolyl–Triazole Hybrids as Monoamine Oxidase Inhibitors” (International Journal of Molecular Sciences, 2024).

The target in data set [1] is T1, hBChE (BChE from human serum) (Homo sapiens, UniProt P06276).
T1 construct: BChE from human serum; purchased Sigma Aldrich (Milan, Italy); host or cells: human serum
Nature of the data set: BChE inhibition, spectrophotometric method of Ellman. The data set is classed as biochemical. The following applies: at 10 µM concentration; ni: no inhibition; mean ± SEM (n = 3). The procedure:
(§1) Human recombinant AChE, BChE from human serum, and human MAOs from baculovirus-infected insect cells were purchased from Sigma Aldrich (Milan, Italy). […] All experiments were carried out in triplicate and results expressed as mean ± SEM.
(§2) AChE/BChE and MAO A/B inhibition were, respectively, determined with the spectrophotometric method of Ellman, and a fluorimetric method using kynuramine as MAO substrate, as previously described.
Background: DTNB colorimetry detects thiols as they appear.

In data set [2] the target is T2, hAChE (human recombinant AChE) (Homo sapiens, UniProt P22303).
T2 construct: purchased Sigma Aldrich (Milan, Italy)
Nature of the data set: biochemical. The procedure:
as §1, §2

Data set [3] addresses T3, hMAO-A (Homo sapiens, UniProt P21397).
T3 construct: purchased Sigma Aldrich (Milan, Italy); host or cells: baculovirus-infected insect cells
T3 sequence (P21397 1-527): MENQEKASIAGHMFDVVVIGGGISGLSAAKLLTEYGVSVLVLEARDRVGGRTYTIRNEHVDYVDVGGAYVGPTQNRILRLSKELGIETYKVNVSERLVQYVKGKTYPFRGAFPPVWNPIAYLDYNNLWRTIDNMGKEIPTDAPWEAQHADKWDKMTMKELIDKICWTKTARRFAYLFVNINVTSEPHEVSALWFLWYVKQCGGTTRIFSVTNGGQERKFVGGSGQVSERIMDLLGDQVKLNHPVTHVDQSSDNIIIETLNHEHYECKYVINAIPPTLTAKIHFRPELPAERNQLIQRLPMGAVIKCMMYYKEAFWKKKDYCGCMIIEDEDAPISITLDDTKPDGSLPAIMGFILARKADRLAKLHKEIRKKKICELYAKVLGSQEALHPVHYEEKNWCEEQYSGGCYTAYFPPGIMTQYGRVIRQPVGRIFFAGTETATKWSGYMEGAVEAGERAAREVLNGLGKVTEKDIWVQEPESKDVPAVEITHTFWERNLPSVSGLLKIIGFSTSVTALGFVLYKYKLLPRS
Nature of the data set: biochemical. The following applies: for inhibition at 10 µM: read-out: hMAO-A % Inhibition. The procedure: as §1, §2

The target in data set [4] is T4, hMAO-B (Homo sapiens, UniProt P27338).
T4 construct: purchased Sigma Aldrich (Milan, Italy); host or cells: baculovirus-infected insect cells
T4 sequence (P27338 1-520): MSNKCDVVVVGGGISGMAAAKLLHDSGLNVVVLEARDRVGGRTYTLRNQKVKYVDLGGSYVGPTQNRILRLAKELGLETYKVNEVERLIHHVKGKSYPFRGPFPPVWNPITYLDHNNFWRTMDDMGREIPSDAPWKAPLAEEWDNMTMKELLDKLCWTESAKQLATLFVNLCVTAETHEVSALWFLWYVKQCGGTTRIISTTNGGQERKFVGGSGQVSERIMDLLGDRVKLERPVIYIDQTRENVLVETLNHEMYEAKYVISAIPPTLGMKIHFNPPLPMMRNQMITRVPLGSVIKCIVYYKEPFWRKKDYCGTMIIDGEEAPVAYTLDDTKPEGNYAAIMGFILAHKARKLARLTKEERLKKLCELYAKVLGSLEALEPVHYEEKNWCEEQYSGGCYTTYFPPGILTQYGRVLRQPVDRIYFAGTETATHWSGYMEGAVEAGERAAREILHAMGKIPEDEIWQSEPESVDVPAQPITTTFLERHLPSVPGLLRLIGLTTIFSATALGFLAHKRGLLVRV
Nature of the data set: MAO-B inhibition, fluorimetric method with kynuramine as substrate. It counts as biochemical. The following applies: read-out: hMAO-B % Inhibition. As to the method:
as §1, §2

T2 sequence (P22303 32-614): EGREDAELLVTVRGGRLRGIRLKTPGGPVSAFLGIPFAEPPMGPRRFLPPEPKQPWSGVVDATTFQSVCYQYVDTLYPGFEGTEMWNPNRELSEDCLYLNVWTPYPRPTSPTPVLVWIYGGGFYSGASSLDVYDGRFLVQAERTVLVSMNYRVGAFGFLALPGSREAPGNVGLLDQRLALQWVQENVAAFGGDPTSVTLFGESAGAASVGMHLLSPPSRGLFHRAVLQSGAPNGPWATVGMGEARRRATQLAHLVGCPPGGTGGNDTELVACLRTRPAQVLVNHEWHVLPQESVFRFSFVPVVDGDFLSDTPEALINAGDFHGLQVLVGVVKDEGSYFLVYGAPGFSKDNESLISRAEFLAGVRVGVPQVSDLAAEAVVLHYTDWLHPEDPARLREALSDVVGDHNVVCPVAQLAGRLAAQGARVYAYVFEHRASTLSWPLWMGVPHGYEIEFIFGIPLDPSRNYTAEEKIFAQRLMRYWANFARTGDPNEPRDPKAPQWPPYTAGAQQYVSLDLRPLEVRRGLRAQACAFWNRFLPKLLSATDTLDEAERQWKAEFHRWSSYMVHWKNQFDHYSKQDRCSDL
T1 sequence (P06276 29-602): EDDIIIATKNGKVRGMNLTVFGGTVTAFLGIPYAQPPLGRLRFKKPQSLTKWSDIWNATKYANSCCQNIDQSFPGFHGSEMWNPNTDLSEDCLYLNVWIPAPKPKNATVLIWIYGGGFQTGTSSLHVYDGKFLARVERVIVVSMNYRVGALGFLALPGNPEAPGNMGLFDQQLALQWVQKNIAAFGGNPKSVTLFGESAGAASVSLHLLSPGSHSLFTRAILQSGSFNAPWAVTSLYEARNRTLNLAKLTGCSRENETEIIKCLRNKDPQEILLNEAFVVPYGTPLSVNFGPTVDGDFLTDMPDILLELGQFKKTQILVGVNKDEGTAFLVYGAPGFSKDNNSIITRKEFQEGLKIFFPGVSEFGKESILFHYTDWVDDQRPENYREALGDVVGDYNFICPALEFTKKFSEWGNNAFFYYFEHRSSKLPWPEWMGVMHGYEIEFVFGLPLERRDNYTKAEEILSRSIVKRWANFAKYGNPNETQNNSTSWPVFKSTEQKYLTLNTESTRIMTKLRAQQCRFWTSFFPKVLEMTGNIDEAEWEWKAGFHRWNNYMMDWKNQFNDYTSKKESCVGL

`CN(c1ccc2oc(=O)ccc2c1)S(=O)(=O)c1ccc(Cl)cc1`: the melting point (in general, the temperature, or range, at which the solid turns liquid) was in the range of 244 to 246 °C.

On to `Cc1ccc(S(=O)(=O)Nc2ccc3oc(=O)ccc3c2)cc1` [11a, 4-Methyl-N-(2-oxo-2H-chromen-6-yl)benzenesulfonamide], for which the “hBChE % Inhibition” value in data set [1] is reported as “ni”. For the same molecule, the inhibition – broadly, how much of the control response was suppressed – at 10 µM in data set [2] is 55 ± 3%; in data set [3] it was 76 ± 3%; in data set [4], 45 ± 2%. In data set [3], inhibition was half-maximal at 2.46 ± 0.67 µM (IC50).

On to `COc1ccc(S(=O)(=O)Nc2ccc3oc(=O)ccc3c2)cc1` [11b, 4-Methoxy-N-(2-oxo-2H-chromen-6-yl)benzenesulfonamide], for which the “hBChE % Inhibition” value in data set [1] is “ni”. In addition, the figures for the inhibition at 10 µM in data set [2], in data set [3] and in data set [4] were 57 ± 4%, 26 ± 3% and 34 ± 3%, respectively.

Regarding `O=c1ccc2cc(NS(=O)(=O)c3ccc(Cl)cc3)ccc2o1` [11c, 4-Chloro-N-(2-oxo-2H-chromen-6-yl)benzenesulfonamide], the “hBChE % Inhibition” value in data set [1] is on record as “ni”. Also, the results for the inhibition at 10 µM in data set [2], in data set [3] and in data set [4] were 55 ± 3%, 9 ± 4% and 26 ± 4%, respectively.

For the molecule `C#CCN(c1ccc2oc(=O)ccc2c1)S(=O)(=O)c1ccc(C)cc1` [13a, 4-Methyl-N-(2-oxo-2H-chromen-6-yl)-N-(prop-2-yn-1-yl)benzenesulfonamide], the “hBChE % Inhibition” value in data set [1] is reported as “ni”. Also, the inhibition at 10 µM in data set [2] worked out at 60 ± 3%; in data set [3], 13 ± 5%; in data set [4] it was 12 ± 1%.

On to `C#CCN(c1ccc2oc(=O)ccc2c1)S(=O)(=O)c1ccc(OC)cc1` [13b, 4-Methoxy-N-(2-oxo-2H-chromen-6-yl)-N-(prop-2-yn-1-yl)benzenesulfonamide], for which, in data set [1], the “hBChE % Inhibition” value is given as “ni”. For the same molecule, the inhibition at 10 µM in data set [2] turned out to be 49 ± 3%; in data set [3], 22 ± 7%; in data set [4], 28 ± 2%.

For `C#CCN(c1ccc2oc(=O)ccc2c1)S(=O)(=O)c1ccc(Cl)cc1` [13c, 4-Chloro-N-(2-oxo-2H-chromen-6-yl)-N-(prop-2-yn-1-yl)benzenesulfonamide], the “hBChE % Inhibition” value in data set [1] is reported as “ni”. For the same molecule, the inhibition at 10 µM in data set [2] stood at 48 ± 2%; in data set [3], 37 ± 5%; in data set [4], 20 ± 2%.

Take `Cc1ccc(S(=O)(=O)N(Cc2cn(CCn3ncc4ccc([N+](=O)[O-])cc43)nn2)c2ccc3oc(=O)ccc3c2)cc1` [14a, 4-Methyl-N-((1-(2-(6-nitro-1H-indazol-1-yl)ethyl)-1H-1,2,3-triazol-4-yl)methyl)-N-(2-oxo-2H-chromen-6-yl)benzenesulfonamide]: the inhibition at 10 µM in data set [1] came out at 48 ± 4%; in data set [2], 51 ± 2%; in data set [3], 76 ± 5%; in data set [4] it was 39 ± 3%. For the same molecule, 14.8 ± 1.6 µM corresponded to half-maximal inhibition in data set [3] (IC50).

Turning to `COc1ccc(S(=O)(=O)N(Cc2cn(CCn3ncc4ccc([N+](=O)[O-])cc43)nn2)c2ccc3oc(=O)ccc3c2)cc1` [14b, 4-Methoxy-N-((1-(2-(6-nitro-1H-indazol-1-yl)ethyl)-1H-1,2,3-triazol-4-yl)methyl)-N-(2-oxo-2H-chromen-6-yl)benzenesulfonamide], the inhibition at 10 µM came to 31 ± 5% in data set [1], 44 ± 3% in data set [2], 81 ± 5% in data set [3] and 23 ± 4% in data set [4]. Further, half-maximal inhibition in data set [3] (IC50) was put at 16.9 ± 1.9 µM.

Turning to `O=c1ccc2cc(N(Cc3cn(CCn4ncc5ccc([N+](=O)[O-])cc54)nn3)S(=O)(=O)c3ccc(Cl)cc3)ccc2o1` [14c, 4-Chloro-N-((1-(2-(6-nitro-1H-indazol-1-yl)ethyl)-1H-1,2,3-triazol-4-yl)methyl)-N-(2-oxo-2H-chromen-6-yl)benzenesulfonamide], the “hBChE % Inhibition” value in data set [1] is reported as “ni”. Besides, the inhibition at 10 µM worked out at 42 ± 1% in data set [2], 67 ± 5% in data set [3] and 45 ± 1% in data set [4]. Half-maximal inhibition in data set [3] (IC50) required 28 ± 2.2 µM.
